This note sets out measurements from ChEMBL document CHEMBL6134930, “Discovery of AB801, a Potent and Selective Inhibitor of AXL Receptor Tyrosine Kinase for Use in Cancer Therapy” (J Med Chem, 2025).

Bounds are passed on as bounds.

In data set [1] the target is T1, Tyrosine-protein kinase receptor UFO (Homo sapiens, UniProt P30530).
T1 sequence (P30530 whole entry): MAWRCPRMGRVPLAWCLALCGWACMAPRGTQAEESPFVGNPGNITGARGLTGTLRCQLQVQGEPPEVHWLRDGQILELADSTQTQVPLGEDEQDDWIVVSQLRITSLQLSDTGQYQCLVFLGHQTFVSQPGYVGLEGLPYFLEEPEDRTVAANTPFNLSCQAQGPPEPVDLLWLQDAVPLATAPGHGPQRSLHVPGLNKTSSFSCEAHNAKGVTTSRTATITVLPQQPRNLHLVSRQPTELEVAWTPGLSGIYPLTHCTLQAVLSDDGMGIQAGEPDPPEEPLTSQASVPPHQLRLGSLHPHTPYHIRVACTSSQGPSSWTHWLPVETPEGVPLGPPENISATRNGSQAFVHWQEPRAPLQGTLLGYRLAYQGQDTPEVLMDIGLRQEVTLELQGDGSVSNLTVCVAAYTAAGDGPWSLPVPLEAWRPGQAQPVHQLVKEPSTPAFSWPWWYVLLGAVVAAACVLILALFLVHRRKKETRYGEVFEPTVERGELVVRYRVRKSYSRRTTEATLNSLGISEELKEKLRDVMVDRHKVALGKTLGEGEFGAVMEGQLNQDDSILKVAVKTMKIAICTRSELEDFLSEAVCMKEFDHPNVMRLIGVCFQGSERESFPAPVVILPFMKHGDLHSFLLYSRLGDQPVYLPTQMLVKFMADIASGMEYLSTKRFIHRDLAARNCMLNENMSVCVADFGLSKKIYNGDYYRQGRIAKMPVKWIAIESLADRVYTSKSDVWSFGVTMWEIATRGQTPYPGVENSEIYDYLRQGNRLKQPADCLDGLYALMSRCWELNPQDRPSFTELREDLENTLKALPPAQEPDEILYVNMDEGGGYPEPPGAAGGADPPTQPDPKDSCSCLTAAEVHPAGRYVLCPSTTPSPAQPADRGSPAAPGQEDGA
As to the kind of experiment: Binding affinity to AXL (unknown origin) expressed in HEK293 cells transfected with Nano-Luc fusion vector assessed as dissociation constant by measuring decrease in BRET signal preincubated for 1 hr followed by K-5 NanoBRET tracer addition incubated for 2 hrs. The format is cell-based.

For the next data set, the target named is hERG (KCNH2) (Homo sapiens, UniProt Q12809). As to the kind of experiment: Inhibition of hERG at 10 uM by high throughput cell based patch clamp assay. It counts as toxicity.
hERG (KCNH2), sequence (Q12809 whole entry): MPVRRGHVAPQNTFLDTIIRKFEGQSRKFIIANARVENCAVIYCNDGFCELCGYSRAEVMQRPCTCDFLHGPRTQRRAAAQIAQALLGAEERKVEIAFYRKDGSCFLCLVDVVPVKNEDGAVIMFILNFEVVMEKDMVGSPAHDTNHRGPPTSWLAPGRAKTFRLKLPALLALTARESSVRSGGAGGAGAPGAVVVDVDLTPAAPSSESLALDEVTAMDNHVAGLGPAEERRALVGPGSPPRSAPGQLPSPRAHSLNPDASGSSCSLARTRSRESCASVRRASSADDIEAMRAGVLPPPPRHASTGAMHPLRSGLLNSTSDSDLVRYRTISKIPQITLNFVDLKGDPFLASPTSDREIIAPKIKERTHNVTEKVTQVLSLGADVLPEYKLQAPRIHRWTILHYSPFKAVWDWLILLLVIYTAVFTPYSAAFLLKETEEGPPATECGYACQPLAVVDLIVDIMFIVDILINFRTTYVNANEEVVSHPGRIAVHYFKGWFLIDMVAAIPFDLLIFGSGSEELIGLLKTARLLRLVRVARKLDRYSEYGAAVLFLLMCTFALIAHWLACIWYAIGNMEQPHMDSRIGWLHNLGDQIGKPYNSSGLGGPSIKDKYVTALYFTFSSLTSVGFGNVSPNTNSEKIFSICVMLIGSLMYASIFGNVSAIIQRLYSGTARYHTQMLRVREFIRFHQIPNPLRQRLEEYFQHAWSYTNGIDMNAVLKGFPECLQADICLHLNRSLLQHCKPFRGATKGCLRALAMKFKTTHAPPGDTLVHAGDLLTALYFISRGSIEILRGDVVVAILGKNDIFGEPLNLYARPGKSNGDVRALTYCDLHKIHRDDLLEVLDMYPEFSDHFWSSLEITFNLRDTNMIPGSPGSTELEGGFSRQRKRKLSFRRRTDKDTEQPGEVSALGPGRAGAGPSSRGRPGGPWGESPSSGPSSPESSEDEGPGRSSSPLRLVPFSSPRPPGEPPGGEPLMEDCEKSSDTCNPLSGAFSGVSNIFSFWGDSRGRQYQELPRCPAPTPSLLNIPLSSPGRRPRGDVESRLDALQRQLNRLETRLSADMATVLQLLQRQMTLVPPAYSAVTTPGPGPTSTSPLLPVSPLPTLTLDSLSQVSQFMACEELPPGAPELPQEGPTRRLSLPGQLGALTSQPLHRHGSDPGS
The target of data set [2] is T1, Tyrosine-protein kinase receptor UFO. The data set is described as follows: Inhibition of autophosphorylation AXL (unknown origin) expressed in HEK293 cells assessed as NanoLuc activity associated with phosphorylated proteins measured after 1 hr incubation by intracellular pAXL-ELISA. It counts as cell-based.
Data set [3] is described as follows: Clearance in Sprague-Dawley rat at 0.5 mg/kg, iv measured up to 24 hrs by LC-MS/MS analysis. It counts as ADME, organism-based. The conditions noted are these: in vivo.
A short description of data set [4]: Metabolic stability in human hepatocytes assessed as intrinsic clearance measured per 10^6 cells. The format is ADME, cell-based, Hepatocyte. Particulars: read-out: CLH.
In data set [5] the target is T1, Tyrosine-protein kinase receptor UFO. The data set is described as follows: Inhibition of human AXL measured after 150 mins by ATP-competitive HTRF based biochemical assay.
A short description of data set [6]: AUCinf in Sprague-Dawley rat at 2 mg/kg, po measured up to 8 hrs by LC-MS/MS analysis. The format is ADME, organism-based. Particulars: in vivo.
Data set [7] can be described thus: Efflux ratio in human Caco-2 cells. It counts as ADME, cell-based.
Data set [8] is described as follows: Metabolic stability in rat hepatocytes assessed as intrinsic clearance measured per 10^6 cells. It counts as ADME, cell-based, Hepatocyte. The conditions noted are these: read-out: CLH.
Data set [9] is described as follows: Apparent permeability of compound from apical to basolateral side in human Caco-2 cells. The format is ADME, cell-based. Particulars: read-out: permeability.

Turning to `O=C1OCCN1c1ccc(-c2n[nH]c3ncc(-c4ccc5c(c4)CC[C@@H](N4C6COCC4C6)CC5)cc23)cc1`, the Kd in data set [1] was 27 nM. At hERG (KCNH2), this compound gave an inhibition at 10 µM of 44%. Besides, the figures for the IC50 in [2] and in data set [5] were 390 nM and 15 nM, respectively. In data set [3], the clearance is 8.17 mL/min/kg. In addition, the hepatocyte CLint is < 2.7 µL/min/1e6 cells in data set [4] and 4.3 µL/min/1e6 cells in data set [8]. In data set [6], the AUC(0-inf) is 1500 ng·h/mL. Besides, the efflux ratio in data set [7] turned out to be 3.3. Also, the Papp A→B in data set [9] came out at 8 ×10⁻⁶ cm/s.

In the case of `c1cc2c(cc1-c1cnc3[nH]nc(-c4ccc(N5C[C@H]6C[C@@H]5CO6)cc4)c3c1)CC[C@@H](N1C3COCC1C3)CC2`, in data set [1], the Kd is 130 nM. In addition, in data set [3], the clearance is 38.3 mL/min/kg. Also, the hepatocyte CLint in data set [4] was 7.2 µL/min/1e6 cells; in [8], 12 µL/min/1e6 cells. The IC50 in data set [5] was 28 nM. Besides, the AUC(0-inf) in [6] came out at 2900 ng·h/mL. Moreover, the efflux ratio in data set [7] came to 1.2. For the same compound, the Papp A→B in [9] amounted to 6.7 ×10⁻⁶ cm/s.

With `Cc1cccnc1-c1ccc(-c2n[nH]c3ncc(-c4ccc5c(c4)CC[C@@](C)(N4CCC[C@H]4C)CC5)cc23)cc1`, the 50% inhibitory concentration (IC50) in data set [2] is 13 nM; in [5] it was 0.75 nM. Besides, the hepatocyte CLint in data set [4] and in data set [8] was < 2.7 µL/min/1e6 cells each time. This compound also yielded an AUC(0-inf) in [6] of 380 ng·h/mL.

Consider `c1ccc(-c2ccc(-c3n[nH]c4ncc(-c5ccc6c(c5)CC[C@@H](N5C7COCC5C7)CC6)cc34)cc2)nc1`, for which the Kd in data set [1] was 75 nM. Besides, the values for the IC50 in data set [2] and in data set [5] were 1700 nM and 5 nM, respectively. In addition, the hepatocyte CLint in data set [4] and in data set [8] was < 2.7 µL/min/1e6 cells each time. In [6], the AUC(0-inf) worked out at 2800 ng·h/mL.

`COCCOc1cccnc1-c1ccc(-c2n[nH]c3ncc(-c4ccc5c(c4)CC[C@@H](N4C6COCC4C6)CC5)cc23)cc1`: the results for the IC50 in data set [2] and in [5] were 33 nM and 1.3 nM, respectively. The hepatocyte CLint in data set [4] was 3.2 µL/min/1e6 cells; in [8] it was 16 µL/min/1e6 cells.

For the compound `Cn1ncnc1-c1ccc(-c2n[nH]c3ncc(-c4ccc5c(c4)CC[C@@H](N4C6COCC4C6)CC5)cc23)cc1`, the Kd in [1] was found to be 7.1 nM. Besides, the hepatocyte CLint in [4] was < 2.7 µL/min/1e6 cells; in data set [8] it was 5 µL/min/1e6 cells. The IC50 in data set [5] came out at 2.7 nM. In [6], this compound returned an AUC(0-inf) of 410 ng·h/mL. The efflux ratio in data set [7] stood at 5.7.

On to `N#Cc1cccnc1-c1ccc(-c2n[nH]c3ncc(-c4ccc5c(c4)CC[C@@H](N4C6COCC4C6)CC5)cc23)cc1`, for which the concentration for half-maximal inhibition (IC50) in [2] amounted to 220 nM; in data set [5], 6 nM. Also, the hepatocyte CLint in [4] and in data set [8] was < 2.7 µL/min/1e6 cells in each case.

In the case of `Cn1ccnc1-c1ccc(-c2n[nH]c3ncc(-c4ccc5c(c4)CC[C@@H](N4C6COCC4C6)CC5)cc23)cc1`, in data set [1], the Kd turned out to be 1.9 nM. Further, the hepatocyte CLint in [4] is < 2.7 µL/min/1e6 cells; in [8], 16 µL/min/1e6 cells. The compound further returned a half-maximal inhibitory concentration (IC50) in [5] of 0.63 nM. Also, the AUC(0-inf) in data set [6] came out at 160 ng·h/mL. The efflux ratio in data set [7] turned out to be 18.

As for `CCc1cccnc1-c1ccc(-c2n[nH]c3ncc(-c4ccc5c(c4)CC[C@@H](N4C6COCC4C6)CC5)cc23)cc1`, the values for the IC50 in data set [2] and in data set [5] were 190 nM and 1.4 nM, respectively. Besides, the results for the hepatocyte CLint in [4] and in [8] were 6.3 µL/min/1e6 cells and 30 µL/min/1e6 cells, respectively.

As to `COc1cccnc1-c1ccc(-c2n[nH]c3ncc(-c4ccc5c(c4)CC[C@@H](N4C6COCC4C6)CC5)cc23)cc1`, the IC50 was found to be 120 nM in data set [2] and 2.4 nM in data set [5]. In addition, the hepatocyte CLint came out at 13 µL/min/1e6 cells in data set [4] and 16 µL/min/1e6 cells in data set [8].

For `Cc1cccnc1-c1ccc(-c2n[nH]c3ncc(-c4ccc5c(c4)CC[C@@H](N4C[C@@H]6C[C@H]4CO6)CC5)cc23)cc1`, the figures for the IC50 in data set [2] and in data set [5] were 57 nM and 1.8 nM, respectively. The hepatocyte CLint in data set [4] is < 2.7 µL/min/1e6 cells; in [8], 13 µL/min/1e6 cells.

Regarding `COCCOc1ccc(-c2n[nH]c3ncc(-c4ccc5c(c4)CC[C@@H](N4C6COCC4C6)CC5)cc23)cc1`, the Kd in data set [1] was 66 nM. Moreover, testing at 10 µM against hERG (KCNH2) gave an inhibition of 84%. In data set [3], this compound gave a clearance of 15 mL/min/kg. In addition, the hepatocyte CLint in data set [4] came out at 14 µL/min/1e6 cells; in [8] it was 9.1 µL/min/1e6 cells. Moreover, the IC50 in [5] was 12 nM. Besides, the total exposure AUC(0-inf) in [6] was determined as 4200 ng·h/mL. Further, the efflux ratio in data set [7] stood at 0.93. Besides, in [9], the Papp A→B was found to be 17 ×10⁻⁶ cm/s.
